Tests used:
large crabgrass = experiment: Test B pre-/postemergence herbicide test; type: in vivo, Digitaria sanguinalis; conditions: for Crabgrass, Large plant response rating (0 to 100 scale) / Plant response rating, Crabgrass, Large: 0 = no effect, 100 = complete control, preemergence; for Crabgrass, Large plant response rating: postemergence
Procedure, shortened: (§1)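 Greenhouse pot assay with simultaneous preemergence (treated seed) and postemergence (2–18 cm seedlings) applications of surfactant-containing, non-phytotoxic solvent formulations. Response scored visually 13–15 days later on a 0–100 scale, 100 meaning complete control.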

morningglory = experiment: Test B pre-/postemergence herbicide test; type: in vivo, Ipomoea coccinea; conditions: for Morningglory plant response rating (0 to 100 scale) / Plant response rating, Morningglory: 0 = no effect, 100 = complete control, preemergence; for Morningglory plant response rating: postemergence
Procedure, shortened: (§2)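 Evaluation is visual, comparing treated with control plants on a scale where 0 means no effect and 100 means full control. Treatments were preemergence, or postemergence on seedlings 2–18 cm tall, and held 13–15 days in the greenhouse.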

wild oat = experiment: Test B postemergence herbicide test; type: in vivo, Avena fatua; conditions: postemergence
Procedure, shortened: (§3)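 Read-out: visual comparison with controls, scored 0 to 100, where 100 means complete control and 0 no effect. Formulated chemicals were applied postemergence to plants 2–18 cm tall (1- to 4-leaf), or to flooded-paddy plants at the 2-leaf stage, then held 13 to 15 days under glass.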

velvetleaf = experiment: Test B pre-/postemergence herbicide test; type: in vivo, Abutilon theophrasti; conditions: for Velvetleaf plant response rating (0 to 100 scale) / Plant response rating, Velvetleaf: 0 = no effect, 100 = complete control, preemergence; for Velvetleaf plant response rating: postemergence
Procedure, shortened: as §1

lambsquarters = experiment: Test B pre-/postemergence herbicide test; type: in vivo, Chenopodium album; conditions: for Lambsquarters plant response rating: postemergence
Procedure, shortened: as §1

wheat = experiment: Test B postemergence herbicide test; type: in vivo, Triticum aestivum; design: key to Wheat plant response rating: 0 = no effect, 100 = complete control; conditions: postemergence
Procedure, shortened: as §3

Surinam grass = experiment: Test B pre-/postemergence herbicide test; type: in vivo, Urochloa decumbens; conditions: for Surinam Grass plant response rating (0 to 100 scale) / Plant response rating, Surinam Grass: 0 = no effect, 100 = complete control, preemergence; for Surinam Grass plant response rating: postemergence
Procedure, shortened: as §1

rice [1] = experiment: Test B pre-/postemergence herbicide test; type: in vivo, Oryza sativa; conditions: 0 = no effect, 100 = complete control, preemergence; for Rice plant response rating (0 to 100 scale): 125 g ai/ha; for Plant response rating, Rice: 500 g ai/ha, visual rating
Procedure, shortened: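 Species tested were Echinochloa crus-galli, Ipomoea coccinea, Xanthium strumarium and Oryza sativa, treated both before emergence and at the 1- to 4-leaf stage; rice and barnyardgrass were also tested under flooding at 2 leaves. Greenhouse incubation lasted 13–15 days before visual 0–100 scoring.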

blackgrass = experiment: Test B postemergence herbicide test; type: in vivo, Alopecurus myosuroides; conditions: postemergence, visual rating, scale 0 (no effect) to 100 (complete control)
Procedure, shortened: (§4)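 Each value is a visual 0–100 response rating taken against controls 13 to 15 days after treatment in the greenhouse. Plants received formulated chemical postemergence at the 1- to 4-leaf stage or, in flooded paddy, at the 2-leaf stage.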

[2] = test system: small flower umbrella sedge; experiment: Test B flooded paddy test; type: in vivo, Cyperus difformis; conditions: 1000 g ai/ha, scale 0 to 100 (0 no effect, 100 complete control)
Procedure, shortened: as §4

pigweed = experiment: Test B pre-/postemergence herbicide test; type: in vivo, Amaranthus retroflexus; conditions: for Pigweed plant response rating (0 to 100 scale) / Plant response rating, Pigweed: 0 = no effect, 100 = complete control, preemergence; for Pigweed plant response rating: postemergence
Procedure, shortened: as §1

barnyardgrass [3] = experiment: Test B flooded paddy test; type: in vivo, Echinochloa crus-galli; conditions: 1000 g ai/ha, scale 0 to 100 (0 no effect, 100 complete control)
Procedure, shortened: as §4

rice [4] = experiment: Test B flooded paddy test; type: in vivo, Oryza sativa; conditions: 1000 g ai/ha, scale 0 to 100 (0 no effect, 100 complete control)
Procedure, shortened: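 Greenhouse test; postemergence application to plants at 1–4 leaves (2–18 cm); paddy species at 2 leaves; evaluated visually vs controls at 13–15 days; scale 0–100 (100 = complete control).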

ducksalad = experiment: Test B flooded paddy test; type: in vivo, Heteranthera limosa; conditions: 1000 g ai/ha, scale 0 to 100 (0 no effect, 100 complete control)
Procedure, shortened: as §4

barnyardgrass [5] = experiment: Test B pre-/postemergence herbicide test; type: in vivo, Echinochloa crus-galli; conditions: for Barnyardgrass plant response rating (0 to 100 scale) / Plant response rating, Barnyardgrass: 0 = no effect, 100 = complete control, preemergence; for Plant response rating, Barnyardgrass / Barnyardgrass plant response rating: visual rating; for Barnyardgrass plant response rating: postemergence, scale 0 (no effect) to 100 (complete control)
Procedure, shortened: as §2

cocklebur = experiment: Test B pre-/postemergence herbicide test; type: in vivo, Xanthium strumarium; conditions: for Cocklebur plant response rating (0 to 100 scale) / Plant response rating, Cocklebur: 0 = no effect, 100 = complete control, preemergence; for Plant response rating, Cocklebur / Cocklebur plant response rating: visual rating; for Cocklebur plant response rating: postemergence, scale 0 (no effect) to 100 (complete control)
Procedure, shortened: as §2

corn = experiment: Test B pre-/postemergence herbicide test; type: in vivo, Zea mays; conditions: for Corn plant response rating (0 to 100 scale) / Plant response rating, Corn: 0 = no effect, 100 = complete control, preemergence; for Corn plant response rating: postemergence
Procedure, shortened: as §1

giant foxtail = experiment: Test B pre-/postemergence herbicide test; type: in vivo, Setaria faberi; conditions: for Foxtail, Giant plant response rating (0 to 100 scale) / Plant response rating, Foxtail, Giant: 0 = no effect, 100 = complete control, preemergence; for Foxtail, Giant plant response rating: postemergence
Procedure, shortened: as §1

[6] = 125 g ai/ha, visual rating, scale 0 (no effect) to 100 (complete control)
[7] = 500 g ai/ha, scale 0 to 100, 0 is no effect, 100 is complete control

CCCOC(=O)c1cc(NC(=O)c2cc(C(C)(C)C)nn2CC)c(F)cc1F [Compound 249]
0: Crabgrass, Large plant response rating (0 to 100 scale) (large crabgrass; 125 g ai/ha) | Plant response rating, Crabgrass, Large (large crabgrass; 500 g ai/ha, visual rating) | Morningglory plant response rating (0 to 100 scale) (morningglory; 125 g ai/ha) | Velvetleaf plant response rating (0 to 100 scale) (velvetleaf; 125 g ai/ha) | Plant response rating, Velvetleaf (velvetleaf; 500 g ai/ha, visual rating) | Lambsquarters plant response rating (0 to 100 scale) (lambsquarters; 125 g ai/ha, 0 = no effect, 100 = complete control, preemergence) | Surinam Grass plant response rating (0 to 100 scale) (Surinam grass; 125 g ai/ha) | Rice plant response rating (0 to 100 scale) (rice [1]) | Plant response rating, Rice (rice [1]) | Pigweed plant response rating (0 to 100 scale) (pigweed; 125 g ai/ha) | Plant response rating, Pigweed (pigweed; 500 g ai/ha, visual rating) | Barnyardgrass plant response rating (barnyardgrass [3]) | Rice plant response rating (rice [4]) | Ducksalad plant response rating (ducksalad) | Barnyardgrass plant response rating (0 to 100 scale) (barnyardgrass [5]; 125 g ai/ha) | Plant response rating, Barnyardgrass (barnyardgrass [5]; 500 g ai/ha) | Cocklebur plant response rating (0 to 100 scale) (cocklebur; 125 g ai/ha) | Plant response rating, Cocklebur (cocklebur; 500 g ai/ha) | Corn plant response rating (0 to 100 scale) (corn; 125 g ai/ha) | Plant response rating, Corn (corn; 500 g ai/ha, visual rating) | Foxtail, Giant plant response rating (0 to 100 scale) (giant foxtail; 125 g ai/ha) | Plant response rating, Foxtail, Giant (giant foxtail; 500 g ai/ha, visual rating)
20: Morningglory plant response rating (morningglory; [6]) | Velvetleaf plant response rating (velvetleaf; [7]) | Lambsquarters plant response rating (lambsquarters; [7]) | Plant response rating, Surinam Grass (Surinam grass; 500 g ai/ha, visual rating) | Blackgrass plant response rating (blackgrass; 125 g ai/ha) | Pigweed plant response rating (pigweed; [6]) | Barnyardgrass plant response rating (barnyardgrass [5]; 500 g ai/ha) | Corn plant response rating (corn; [7]) | Foxtail, Giant plant response rating (giant foxtail; [6])
30: Crabgrass, Large plant response rating (large crabgrass; [7]) | Morningglory plant response rating (morningglory; [7]) | Oat, Wild plant response rating (wild oat; [6]) | Wheat plant response rating (wheat; [6]) | Wheat plant response rating (wheat; [7]) | Surinam Grass plant response rating (Surinam grass; [7]) | Blackgrass plant response rating (blackgrass; 500 g ai/ha) | Sedge, Umbrella plant response rating [2] | Cocklebur plant response rating (cocklebur; 125 g ai/ha) | Cocklebur plant response rating (cocklebur; 500 g ai/ha) | Foxtail, Giant plant response rating (giant foxtail; [7])
40: Oat, Wild plant response rating (wild oat; [7])
10: Crabgrass, Large plant response rating (large crabgrass; [6]) | Plant response rating, Morningglory (morningglory; 500 g ai/ha, visual rating) | Velvetleaf plant response rating (velvetleaf; [6]) | Lambsquarters plant response rating (lambsquarters; [6]) | Surinam Grass plant response rating (Surinam grass; [6]) | Barnyardgrass plant response rating (barnyardgrass [5]; 125 g ai/ha) | Corn plant response rating (corn; [6])
80: Pigweed plant response rating (pigweed; [7])

CCN(C)C(=O)c1cc(NC(=O)c2cc(C(C)(C)C)nn2CC)c(F)cc1F [Compound 254]
30: Morningglory plant response rating (morningglory; [7]) | Pigweed plant response rating (pigweed; [7]) | Barnyardgrass plant response rating (barnyardgrass [3]) | Plant response rating, Foxtail, Giant (giant foxtail; 500 g ai/ha, visual rating)
10: Crabgrass, Large plant response rating (0 to 100 scale) (large crabgrass; 125 g ai/ha) | Crabgrass, Large plant response rating (large crabgrass; [6]) | Crabgrass, Large plant response rating (large crabgrass; [7]) | Plant response rating, Morningglory (morningglory; 500 g ai/ha, visual rating) | Velvetleaf plant response rating (velvetleaf; [6]) | Velvetleaf plant response rating (velvetleaf; [7]) | Lambsquarters plant response rating (lambsquarters; [6]) | Wheat plant response rating (wheat; [6]) | Surinam Grass plant response rating (Surinam grass; [6]) | Surinam Grass plant response rating (Surinam grass; [7]) | Blackgrass plant response rating (blackgrass; 500 g ai/ha) | Pigweed plant response rating (pigweed; [6]) | Barnyardgrass plant response rating (barnyardgrass [5]; 500 g ai/ha) | Corn plant response rating (corn; [7])
80: Rice plant response rating (rice [4])
40: Plant response rating, Surinam Grass (Surinam grass; 500 g ai/ha, visual rating) | Plant response rating, Barnyardgrass (barnyardgrass [5]; 500 g ai/ha)
20: Morningglory plant response rating (morningglory; [6]) | Oat, Wild plant response rating (wild oat; [6]) | Oat, Wild plant response rating (wild oat; [7]) | Plant response rating, Velvetleaf (velvetleaf; 500 g ai/ha, visual rating) | Lambsquarters plant response rating (lambsquarters; [7]) | Wheat plant response rating (wheat; [7]) | Plant response rating, Rice (rice [1]) | Cocklebur plant response rating (cocklebur; 125 g ai/ha) | Cocklebur plant response rating (cocklebur; 500 g ai/ha)
60: Sedge, Umbrella plant response rating [2]
100: Plant response rating, Crabgrass, Large (large crabgrass; 500 g ai/ha, visual rating) | Plant response rating, Lambsquarters (lambsquarters; 500 g ai/ha, visual rating, 0 = no effect, 100 = complete control, preemergence) | Plant response rating, Pigweed (pigweed; 500 g ai/ha, visual rating)
0: Morningglory plant response rating (0 to 100 scale) (morningglory; 125 g ai/ha) | Velvetleaf plant response rating (0 to 100 scale) (velvetleaf; 125 g ai/ha) | Surinam Grass plant response rating (0 to 100 scale) (Surinam grass; 125 g ai/ha) | Rice plant response rating (0 to 100 scale) (rice [1]) | Blackgrass plant response rating (blackgrass; 125 g ai/ha) | Pigweed plant response rating (0 to 100 scale) (pigweed; 125 g ai/ha) | Barnyardgrass plant response rating (0 to 100 scale) (barnyardgrass [5]; 125 g ai/ha) | Barnyardgrass plant response rating (barnyardgrass [5]; 125 g ai/ha) | Cocklebur plant response rating (0 to 100 scale) (cocklebur; 125 g ai/ha) | Plant response rating, Cocklebur (cocklebur; 500 g ai/ha) | Corn plant response rating (0 to 100 scale) (corn; 125 g ai/ha) | Plant response rating, Corn (corn; 500 g ai/ha, visual rating) | Corn plant response rating (corn; [6]) | Foxtail, Giant plant response rating (0 to 100 scale) (giant foxtail; 125 g ai/ha) | Foxtail, Giant plant response rating (giant foxtail; [6]) | Foxtail, Giant plant response rating (giant foxtail; [7])
90: Ducksalad plant response rating (ducksalad)
